Test results reported in US7727977B2, “Kynurenine 3-hydroxylase inhibitors for the treatment of diabetes” (Merck Patent Gesellschaft mit beschrankter Haftung, priority 2003, dated 2010).
Marks after values point to notes of the source that are not given here.

Legend:
[1] = biological target: T1, kynurenine 3-hydroxylase (Rattus norvegicus, UniProt O88867); assay: Inhibitory activity on kynurenine 3-hydroxylase in rat liver homogenate; assay type: biochemical; settings: test concentration not given
T1 construct: incubating 10 μL of the homogenate with NADPH (2 mM), kynurenine (100 μM); from tissue; host or cells: rat liver (pellet of the homogenate, resuspended)
T1 sequence (O88867 whole entry): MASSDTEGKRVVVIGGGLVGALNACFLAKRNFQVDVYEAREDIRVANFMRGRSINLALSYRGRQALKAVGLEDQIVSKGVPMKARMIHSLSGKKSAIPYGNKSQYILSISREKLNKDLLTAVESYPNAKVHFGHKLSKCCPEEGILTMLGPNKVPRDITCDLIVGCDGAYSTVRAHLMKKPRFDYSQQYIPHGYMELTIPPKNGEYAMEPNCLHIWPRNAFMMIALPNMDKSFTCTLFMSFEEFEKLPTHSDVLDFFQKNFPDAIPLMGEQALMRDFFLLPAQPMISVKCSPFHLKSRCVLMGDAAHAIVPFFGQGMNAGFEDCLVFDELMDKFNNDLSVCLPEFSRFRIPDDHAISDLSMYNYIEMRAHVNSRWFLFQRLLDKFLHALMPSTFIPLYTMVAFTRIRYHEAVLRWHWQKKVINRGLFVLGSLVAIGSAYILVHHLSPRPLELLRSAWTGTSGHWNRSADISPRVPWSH
Protocol: Study of the Inhibitory Activity on Kynurenine 3-hydroxylase in Rat Liver
Rat livers are homogenised (1:8 weight/volume) in a buffer solution comprising: • 0.25 M sucrose • 50 mM pH 7.4 Tris; • 1 mM EDTA; and • 1 mM DTT.
The homogenates are centrifuged for 10 minutes at 12 000 rpm. The pellets are resuspended in the buffer solution described above (1:2 weight/volume).
The kynurenine 3-hydroxylase inhibition is determined by incubating 10 μL of the homogenate with NADPH (2 mM), kynurenine (100 μM) and various concentrations of the test compounds in a final volume of 100 μL at 37° C. for 5 minutes.
The compounds are tested at concentrations of between 1 μM and 300 μM. 3,4-Dimethoxy-N-[4-(3-nitrophenyl)thiazol-2-yl]benzenesulfonamide is a compound from the company Hoffmann-LaRoche (Basle, see J. Med. Chem., 40 (1997), 4738). 30H-Kynurenine was tested according to the protocol described by Carpendo et al. (Neuroscience, 61 (1994), 237-244).
Each of the experiments is repeated once and the IC50 values (in μmol/L) are calculated and given in the form of a mean of these two experiments.
Results concerning representative examples of family Ih are given in Table II below, in which is indicated the measurement of the percentage of remaining kynurenine 3-hydroxylase activity relative to the control (100%).

[2] = test system: primary hepatocytes; assay: Hepatic glucose production, basal lactate/pyruvate 2 hours, in primary hepatocytes; assay type: cell-based, Wistar rats; parameters: Hepatic glucose production: unit not given here; settings: for HGP % of control: Basal Lact/Pyr 2 hours; for hepatic glucose production in vitro (result in words): primary rat hepatocytes, summary of Tables III and IV
Protocol: (§1) Study of the Effect on Glucose Production by the Liver Materials and Method:
After washing in pH 7.4 PBS buffer, the cells are incubated for two hours at 37° C. in a Krebs buffer free of glucose and of insulin, containing lactate/pyruvate (10/1 mM) in the presence or absence of the test compounds. 10 μM MICA (5-methoxyindole-2-carboxylic acid) is used as reference substance. Two identical experiments are performed (Table III-2).
The protein assay is performed on the rest of the incubation medium via the Lowry method (BIO-RAD Dc protein assay, BIO-RAD 5000116).
(§2) The results are expressed as nmoles of glucose produced per […] of proteins. The statistical test used is the t test.

[3] = test system: primary hepatocytes; assay: Hepatic glucose production stimulated by AMPc/DEX in primary hepatocytes; assay type: cell-based, Wistar rats
Protocol: as §1
The hepatocytes are isolated from the liver of Wistar rats fasted for 24 hours, according to the method described in Methods Cell Biol., 13 (1975), 29-83.
1) The hepatocytes are cultured for 16 to 18 hours in DMEM medium in the presence of AMP cyclase/dexamethasone at respective concentrations of 5×10^−5 M and 5×10^−7 M, with preincubation of the products at the test doses. After washing in pH 7.4 PBS buffer, the cells are incubated for three hours at 37° C. in a Krebs/AMPc/DEX buffer at the abovementioned concentrations. 0.1 μM insulin is used as reference substance. Two identical experiments are performed (Table III-1).
Quantification of the glucose is performed via a colorimetric method using glucose oxidase (IL test™ Glucose, Monarch 181633-80). The protein assay is performed on the rest of the incubation medium via the Lowry method (BIO-RAD Dc protein assay, BIO-RAD 5000116).
as §2

[4] = test system: perfused isolated pancreases from N0 STZ diabetic rats; assay: Secretion of insulin and glucagon in perfused isolated pancreases from N0 STZ diabetic rats; assay type: cell-based; settings: absence of glucose, then 16.5 mM glucose; diabetic rat pancreas
Text: Study of the Effect on the Secretion of the Pancreatic Hormones Insulin and Glucagon, in N0STZ Diabetic Rats
The results are expressed as the mean±SEM (standard error of mean) of several experiments. The statistical test used is the Scheffé test.

Remaining kynurenine 3-hydroxylase activity (% of control) [1] [%]	Molecule	other results
24.3	2-(2′-naphthylthio)-4-(4′-chlorophenyl)-4-oxobutanoic acid [Ih-30]	
23.2	2-(2′-naphthylthio)-4-phenyl-4-oxobutanoic acid [Ih-1]	HGP % of control ([2]; 1 μM): 10 % of control; HGP % of control ([2]; 10 μM): 127 % of control; HGP % of control ([2]; 100 μM): 95 % of control; hepatic glucose production in vitro (result in words) [2]: powerful inhibitors of hepatic glucose production in vitro; HGP % of control ([3]; 1 μM): 103 % of control; HGP % of control ([3]; 10 μM): 83 % of control; HGP % of control ([3]; 100 μM): 15 % of control
	O=C(C[C@@H](Cc1ccccc1)C(=O)O)c1ccc(Cl)c(Cl)c1 (racemic) [Compound j, (R,S)-2-benzyl-4-(3′,4′-dichlorophenyl)-4-oxobutanoic acid]	Inhibition of hepatic glucose production ([2]; 1 μM): 30** %; Inhibition of hepatic glucose production ([2]; 10 μM): 51** %; Inhibition of hepatic glucose production ([2]; 100 μM): 65** %; hepatic glucose production in vitro (result in words) [2]: powerful inhibitors of hepatic glucose production in vitro
	O=C(C[C@@H](Cc1ccccc1)C(=O)O)c1ccc(F)cc1 [Compound i, (R)-2-benzyl-4-(4-fluorophenyl)-4-oxobutanoic acid]	Hepatic glucose production ([2]; 1 μM): 88 ± 7; Hepatic glucose production ([2]; 10 μM): 73 ± 4; Hepatic glucose production ([2]; 100 μM): 39 ± 3; hepatic glucose production in vitro (result in words) [2]: powerful inhibitors of hepatic glucose production in vitro; glucagon secretion (result in words) [4]: stimulation; insulin secretion (result in words) [4]: stimulation
	COc1ccc(S(=O)(=O)Nc2nc(-c3cccc([N+](=O)[O-])c3)cs2)cc1OC [Compound k, 3,4-dimethoxy-N-[4-(3-nitrophenyl)thiazol-2-yl]benzenesulfonamide, reference compound]	glucagon secretion (result in words) [4]: stimulation; insulin secretion (result in words) [4]: stimulation
50.4	O=C(CC(Sc1ccc(F)cc1)C(=O)O)c1ccccc1 (stereo not drawn) [Ih-3, 2-(4′-fluorophenylthio)-4-phenyl-4-oxobutanoic acid]	
45.4	Cc1ccc(SC(CC(=O)c2ccccc2)C(=O)O)cc1 (stereo not drawn) [Ih-5, 2-(4′-methylphenylthio)-4-phenyl-4-oxobutanoic acid]	
81.3	O=C(CC(SC1CCCCC1)C(=O)O)c1ccccc1 (stereo not drawn) [Ih-7, 2-cyclohexylthio-4-phenyl-4-oxobutanoic acid]	
66.7	CCOC(=O)C(CC(=O)c1ccccc1)Sc1ccc(F)cc1 (stereo not drawn) [Ih-10, ethyl 2-(4′-fluorophenylthio)-4-phenyl-4-oxobutanoate]	
63.3	CCOC(=O)C(CC(=O)c1ccccc1)Sc1ccc(C)cc1 (stereo not drawn) [Ih-12, ethyl 2-(4′-methylphenylthio)-4-phenyl-4-oxobutanoate]	
55.2	CCOC(=O)C(CC(=O)c1ccccc1)Sc1ccc(OC)cc1 (stereo not drawn) [Ih-13, ethyl 2-(4′-methoxyphenylthio)-4-phenyl-4-oxobutanoate]	
95.0	CCOC(=O)C(CC(=O)c1ccccc1)SC1CCCCC1 (stereo not drawn) [Ih-15, ethyl 2-cyclohexylthio-4-phenyl-4-oxobutanoate]	
6.6	COc1ccc(C(=O)CC(Sc2ccc(F)cc2)C(=O)O)cc1 (stereo not drawn) [Ih-18, 2-(4′-fluorophenylthio)-4-(4′-methoxyphenyl)-4-oxobutanoic acid]	
13.3	COc1ccc(C(=O)CC(Sc2ccc(C)cc2)C(=O)O)cc1 (stereo not drawn) [Ih-20, 2-(4′-methylphenylthio)-4-(4′-methoxyphenyl)-4-oxobutanoic acid]	
17.4	COc1ccc(SC(CC(=O)c2ccc(OC)cc2)C(=O)O)cc1 (stereo not drawn) [Ih-21, 2-(4′-methoxyphenylthio)-4-(4′-methoxyphenyl)-4-oxobutanoic acid]	
38.1	COc1ccc(C(=O)CC(SC2CCCCC2)C(=O)O)cc1 (stereo not drawn) [Ih-23, 2-cyclohexylthio-4-(4′-methoxyphenyl)-4-oxobutanoic acid]	
55.5	O=C(CC(Sc1ccc(F)cc1)C(=O)O)c1ccc(Cl)cc1 (stereo not drawn) [Ih-26, 2-(4′-fluorophenylthio)-4-(4′-chlorophenyl)-4-oxobutanoic acid]	
50.5	Cc1ccc(SC(CC(=O)c2ccc(Cl)cc2)C(=O)O)cc1 (stereo not drawn) [Ih-28, 2-(4′-methylphenylthio)-4-(4′-chlorophenyl)-4-oxobutanoic acid]	
	O=C(O)c1cc(=O)c2ccccc2[nH]1 [Kynurenic acid]	glucagon secretion (result in words) [4]: stimulates; insulin secretion (result in words) [4]: stimulates the secretion of insulin
	Nc1ccccc1C(=O)CC(N)C(=O)O (stereo not drawn) [Kynurenine]	hepatic glucose production in vitro (result in words) [2]: powerful inhibitors of hepatic glucose production in vitro; glucagon secretion (result in words) [4]: stimulated; insulin secretion (result in words) [4]: stimulated
	N[C@@H](Cc1c[nH]c2ccccc12)C(=O)O [Tryptophan, reference compound]	hepatic glucose production in vitro (result in words) [2]: powerful inhibitors of hepatic glucose production in vitro; glucagon secretion (result in words) [4]: stimulates glucagon secretion in a glucose-dependent manner; insulin secretion (result in words) [4]: stimulates insulin secretion in a glucose-dependent manner
30.0	ethyl 2-(2′-naphthylthio)-4-phenyl-4-oxobutanoate [Ih-14]	

Molecule	Remaining kynurenine 3-hydroxylase activity (% of control) [1] [%]	other results
O=C(CC(Sc1ccccc1)C(=O)O)c1ccccc1 (stereo not drawn) [Ih-2, 2-phenylthio-4-phenyl-4-oxobutanoic acid]	70.4	
O=C(CC(Sc1ccc(Cl)cc1)C(=O)O)c1ccccc1 (stereo not drawn) [Ih-4, 2-(4′-chlorophenylthio)-4-phenyl-4-oxobutanoic acid]	34.8	
O=C(CC(SCc1ccccc1)C(=O)O)c1ccccc1 (stereo not drawn) [Ih-8, 2-benzylthio-4-phenyl-4-oxobutanoic acid]	68.6	
CCOC(=O)C(CC(=O)c1ccccc1)Sc1ccccc1 (stereo not drawn) [Ih-9, ethyl 2-phenylthio-4-phenyl-4-oxobutanoate]	80.8	
CCOC(=O)C(CC(=O)c1ccccc1)Sc1ccc(Cl)cc1 (stereo not drawn) [Ih-11, ethyl 2-(4′-chlorophenylthio)-4-phenyl-4-oxobutanoate]	44.6	
CCOC(=O)C(CC(=O)c1ccccc1)SCc1ccccc1 (stereo not drawn) [Ih-16, ethyl 2-benzylthio-4-phenyl-4-oxobutanoate]	84.4	
COc1ccc(C(=O)CC(Sc2ccccc2)C(=O)O)cc1 (stereo not drawn) [Ih-17, 2-phenylthio-4-(4′-methoxyphenyl)-4-oxobutanoic acid]	16.0	
COc1ccc(C(=O)CC(Sc2ccc(Cl)cc2)C(=O)O)cc1 (stereo not drawn) [Ih-19, 2-(4′-chlorophenylthio)-4-(4′-methoxyphenyl)-4-oxobutanoic acid]	4.1	
COc1ccc(C(=O)CC(SCc2ccccc2)C(=O)O)cc1 (stereo not drawn) [Ih-24, 2-benzylthio-4-(4′-methoxyphenyl)-4-oxobutanoic acid]	18.9	
O=C(CC(Sc1ccccc1)C(=O)O)c1ccc(Cl)cc1 (stereo not drawn) [Ih-25, 2-phenylthio-4-(4′-chlorophenyl)-4-oxobutanoic acid]	67.6	
O=C(CC(Sc1ccc(Cl)cc1)C(=O)O)c1ccc(Cl)cc1 (stereo not drawn) [Ih-27, 2-(4′-chlorophenylthio)-4-(4′-chlorophenyl)-4-oxobutanoic acid]	34.9	
